A value given as a limit tells only on which side of the number the result lay.

In one assay the target is His-tagged N-terminal ATP binding domain (amino acid residues 9-236) of HSP90α (Homo sapiens, UniProt P07900). In words: HSP90 inhibitor binding potency: TRF competition binding assay. The note with it: Table 1; competition with biotinylated radicicol. A digest of the protocol:
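His-tagged HSP90α N-domain (residues 9-236) incubated 2 h at room temperature with biotinylated radicicol and increasing compound in 50 mM HEPES, 6 mM MgCl2, 20 mM KCl, 0.1% BSA. Bound tracer captured on streptavidin plates, detected with europium anti-His antibody by time-resolved fluorescence; IC50 derived.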
For `Cc1nc(N)nc2c1C(=O)NC(c1ccc(F)cc1-c1cncnc1)C2` (stereo not shown) [Compound 24, 2-Amino-7-(4-fluoro-2-pyrimidin-5-yl-phenyl)-4-methyl-7,8-dihydro-6H-pyrido[4,3-d]pyrimidin-5-one], the IC50 was > 10 µM.

Take `COc1cccc(-c2cc(F)ccc2[C@H]2Cc3nc(N)nc(C)c3C(=O)N2CCCN)n1` [Compound 27, (R)-2-Amino-6-(3-amino-propyl)-7-[4-fluoro-2-(6-methoxy-pyridin-2-yl)-phenyl]-4-methyl-7,8-dihydro-6H-pyrido[4,3-d]pyrimidin-5-one]: the IC50 was < 10 µM.

The assay is the same for the next values; noted with them: Table 2; competition with biotinylated radicicol.
Regarding `Cc1nc(N)nc2c1C(=O)N[C@@H](c1ccc(F)cc1-c1nccc(N3CCCC3)n1)C2` [Compound 49], the IC50 is > 10 µM.

As to `COc1ccc(-c2cc(F)ccc2[C@H]2Cc3nc(N)nc(C)c3C(=O)N2)s1` [Compound 65, (R)-2-Amino-7-[4-fluoro-2-(5-methoxy-thiophen-2-yl)-phenyl]-4-methyl-7,8-dihydro-6H-pyrido[4,3-d]pyrimidin-5-one], the IC50 was < 10 µM.

Staying with this assay, now noted: Table 3; competition with biotinylated radicicol.
Take `COc1ccc(CN2C(=O)c3c(C)nc(N)nc3C[C@@H]2c2ccc(F)cc2-c2cncc(OC)n2)c(OC)c1` [Compound 118, (R)-2-Amino-6-(2,4-dimethoxy-benzyl)-7-[4-fluoro-2-(6-methoxy-pyrazin-2-yl)-phenyl]-4-methyl-7,8-dihydro-6H-pyrido[4,3-d]pyrimidin-5-one]: the IC50 was < 10 µM.

For `Cc1nc(N)nc2c1C(=O)N(CCCN)[C@@H](c1ccc(F)cc1Br)C2` [Compound 166, (R)-2-Amino-6-(3-amino-propyl)-7-(2-bromo-4-fluoro-phenyl)-4-methyl-7,8-dihydro-6H-pyrido[4,3-d]pyrimidin-5-one], the IC50 is > 10 µM.

`CCN1C(=O)c2c(C)nc(N)nc2C[C@@H]1c1ccc(F)cc1-c1cncc(OC)n1` [Compound 108, (R)-2-Amino-6-ethyl-7-[4-fluoro-2-(6-methoxy-pyrazin-2-yl)-phenyl]-4-methyl-7,8-dihydrp-6H-pyrido[4,3-d]pyrimidin-5-one]: the IC50 is < 10 µM.

Take `COc1ncccc1-c1cc(F)ccc1[C@H]1Cc2nc(N)nc(C)c2C(=O)N1CCC(C)C` [Compound 152, (R)-2-Amino-7-[4-fluoro-2-(2-methoxy-pyridin-3-yl)-phenyl]-4-methyl-6-(3-methyl-butyl)-7,8-dihydro-6H-pyrido[4,3-d]pyrimidin-5-one]: the IC50 is < 10 µM.

With `Cc1nc(N)nc2c1C(=O)N(Cc1ccccc1)[C@@H](c1ccc(F)cc1-c1cccnc1)C2` [Compound 140, (R)-2-Amino-6-benzyl-7-(4-fluoro-2-pyridin-3-yl-phenyl)-4-methyl-7,8-dihydro-6H-pyrido[4,3-d]pyrimidin-5-one], the IC50 was < 10 µM.

Still in this assay, the particulars now being: Table 4; competition with biotinylated radicicol.
For the molecule `Cc1nc(N)nc2c1C(=O)N[C@@H](c1ccccc1Br)C2` [Compound 184, (R)-2-Amino-7-(2-bromo-phenyl)-4-methyl-7,8-dihydro-6H-pyrido[4,3-d]pyrimidin-5-one], the IC50 was ≥ 10 µM.

`COc1cncc(-c2cc(F)ccc2[C@H]2Cc3nc(N)ncc3C(=O)N2)n1` [Compound 175, (R)-2-Amino-7-[4-fluoro-2-(6-methoxy-pyrazin-2-yl)-phenyl]-7,8-dihydro-6H-pyrido[4,3-d]pyrimidin-5-one]: the IC50 was < 10 µM.

`COc1nc(-c2ccccc2[C@H]2Cc3nc(N)nc(C)c3C(=O)N2)ncc1F` [Compound 204, (R)-2-Amino-7-[2-(5-fluoro-4-methoxy-pyrimidin-2-yl)-phenyl]-4-methyl-7,8-dihydro-6H-pyrido[4,3-d]pyrimidin-5-one]: the IC50 is < 10 µM.

Turning to `COc1ccc([C@H]2Cc3nc(N)nc(C)c3C(=O)N2)c(-c2cccc(OC)n2)c1` [Compound 237, (R)-2-Amino-7-[4-methoxy-2-(6-methoxy-pyridin-2-yl)-phenyl]-4-methyl-7,8-dihydro-6H-pyrido[4,3-d]pyrimidin-5-one], the IC50 is < 10 µM.

Broadly, the IC50 is the concentration that inhibits the measured activity by half. Lower therefore signals greater potency in that assay.

The values above are taken from patent US20070123546A1, “2-amino-7,8-dihydro-6H-pyrido[4,3-d]pyrimidin-5-ones” (Chiron Corporation, priority 2005, published 2007).
